Data from US20130331427A1, “METHODS OF STIMULATING CELLULAR GROWTH, SYNAPTIC, REMODELING AND CONSOLIDATION OF LONG-TERM MEMORY” (Blanchette Rockefeller Neuroscience Institute, priority 2007, published 2013).
Read-outs that look alike come from different tables or passages of the source.

Experiments:
[1] = tested on: PKC; details: cited from earlier work
[2] = tested on: PKC; assay: PKC affinity of bryostatin and bryologs; assay type: binding
Source text: Structurally, they are all similar.

[3] = target: T1, PKCε (Homo sapiens, UniProt Q02156); details: cited from earlier work
T1 sequence (Q02156 1-737): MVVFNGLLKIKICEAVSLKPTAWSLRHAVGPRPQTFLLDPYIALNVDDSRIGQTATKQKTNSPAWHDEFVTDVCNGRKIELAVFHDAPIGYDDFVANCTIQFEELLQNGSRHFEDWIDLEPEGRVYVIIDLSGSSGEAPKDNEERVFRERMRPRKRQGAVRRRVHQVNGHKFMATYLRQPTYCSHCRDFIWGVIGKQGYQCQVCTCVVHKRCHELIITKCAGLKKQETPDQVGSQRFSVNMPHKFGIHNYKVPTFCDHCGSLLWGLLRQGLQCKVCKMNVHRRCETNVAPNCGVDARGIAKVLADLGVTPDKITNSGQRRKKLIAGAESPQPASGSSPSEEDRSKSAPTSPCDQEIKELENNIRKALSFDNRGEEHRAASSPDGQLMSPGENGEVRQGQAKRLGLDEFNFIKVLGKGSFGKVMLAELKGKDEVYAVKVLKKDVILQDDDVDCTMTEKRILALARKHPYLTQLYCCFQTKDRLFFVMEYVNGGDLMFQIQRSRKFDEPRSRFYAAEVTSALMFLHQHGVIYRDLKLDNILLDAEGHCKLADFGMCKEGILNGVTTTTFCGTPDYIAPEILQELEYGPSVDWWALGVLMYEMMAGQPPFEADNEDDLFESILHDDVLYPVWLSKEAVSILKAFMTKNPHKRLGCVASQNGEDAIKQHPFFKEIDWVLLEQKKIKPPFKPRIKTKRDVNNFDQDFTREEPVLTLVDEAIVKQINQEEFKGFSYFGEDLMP

[4] = tested on: PKC; details: K562 cells; cited from earlier work
[5] = tested on: cyclin dependent kinase 2 (Cdk2); details: at 5 ng/ml; cited from earlier work
[6] = tested on: murine leukemias and solid tumors; details: cited from earlier work
[7] = target: PKC; details: [3H]phorbol dibutyrate competition; read-out: Ki for binding; cited from earlier work
[8] = tested on: squamous cell carcinoma and melanoma; details: used topically; cited from earlier work
[9] = tested on: NCI 60 cell line screen; details: cited from earlier work
[10] = tested on: Hermissenda Crassicornis; assay: Pavlovian conditioning of Hermissenda, memory retention; assay type: in vivo
Experimental: Specimens of Hermissenda Crassicornis were maintained in artificial sea water (ASW) at 15° for three days in perforated 50-ml conical centrifuge tubes before starting experiments. […] For selected experiments lactacysteine (10 μM) or anisomycin was added to the ASW.
Pavlovian conditioning of Hermissenda involves repeated pairings of a neutral stimulus, light, with an unconditioned stimulus, orbital shaking. (See, Lederhendler et al. (24) and Epstein et al. (6)). A rotation/shaking stimulus excites the statocyst hair cells and thereby elicits an unconditioned response: a brisk contraction of the muscular undersurface called a foot, accompanied by adherence or “clinging” to the surface that supports the foot. Before conditioning, light elicits a weakly positive phototaxis accompanied by lengthening of the foot. After sufficient light-rotation pairings, light no longer elicits phototaxis, but instead elicits a new response (24): the “clinging” and foot shortening previously elicited only by the unconditional stimulus (FIG. 1). Thus, the meaning of the unconditioned stimulus, rotation or orbital shaking, has been transferred to the conditioned stimulus and is manifested by a light-elicited foot contraction—a negative change of foot length. This conditioned response to light can last for weeks, is not produced by randomized light and rotation, is stimulus-specific, and shares the other defining characteristics of mammalian Pavlovian Conditioning.
Pavlovian conditioning of Hermissenda has well-defined training parameters that produce progressively longer-lasting retention of the learned conditioned response. Two training events (2 TE) of paired light and orbital shaking (see “Methods”), for example, induce a learned conditioned response (light-elicited foot contraction or shortening) that persists without drug treatment for approximately 7 minutes. Four to six training events (4-6 TE) induce a conditioned response that persists up to several hours, but disappears approximately by 1 day after training. Nine TE produces long-term associative memory lasting many days and often up to two weeks.
All animals were tested with the CS alone at 4 h, then at 24-h intervals.

[11] = tested on: CA1 neurons; assay: acute hippocampal slices, number of dendritic spines (spinophilin); assay type: cell-based; details: PKC blocker
[12] = tested on: Rat IGF-IR cells; assay: overall protein synthesis, [35S]methionine incorporation; details: PKC inhibitor also present
Experimental: [^35S]Methionine (9.1 μCi) was then added to the medium followed by analysis of radiolabel.

[13] = tested on: calexcitin; assay: calexcitin immunostaining in Hermissenda B-photoreceptors; assay type: in vivo
Experimental: Following experimental treatments and testing, animals were rapidly decapitated, the central nervous systems (CNS) removed and then fixed in 4% para-formaldehyde in 20 mM Tris-buffered (pH 8) natural seawater (NSW; 0.2 μm micropore-filtered). The CNSs were then embedded in polyester wax (20), sectioned (6 μm) and immunostained using a biotinylated secondary antibody coupled to avidin-bound microperoxidase (ABC method, Vector), Aminoethylcarbazole (AEC) was used as the chromogen. The primary polyclonal antibody (designated 25U2) was raised in rabbits from the full length calexcitin protein extracted from squid optic lobes. Gray-scale intensity measures were done from digital photomicrographs on circumscribed cytoplasmic areas of the B-photoreceptors minus the same background area (non-staining neuropile).
Micrographs (A, B) depict representative tissue sections from Hermissenda eyes that were immunolabeled with the calexcitin polyclonal antibody, 25U2. […] Differences in staining intensities were measured and recorded as gray-scale intensities (0-256; B-cell cytoplasm minus tissue background).

[14] = tested on: PKC; assay: PKC activity (histone phosphorylation) in Hermissenda nervous systems; assay type: in vivo; details: anisomycin 1.0 ng/ml with each bryostatin 0.25 ng/ml exposure, three successive days
Experimental: Cells were homogenized by sonication (5 sec, 25 W) in 100 μl of 100 mM Tris-HCL pH 7.4 buffer containing 1 mM EGTA, 1 mM PMSF, and 50 mM NaF. Homogenate was transferred to a polyallomer centrifuge tube and was centrifuged at 100,000×g for 10 min at 4°. The supernatant was removed and immediately frozen on dry ice. The particulate fraction was resuspended by sonication in 100 μl of the same buffer and stored at −80°. To measure PKC, 10 μl of cytosol or particulate fraction was incubated for 15 min at 37° in the presence of 10 μM histones, 4.89 mM CaCl2, 1.2 μg/μl phosphatidyl-L-serine, 0.18 μg/μl 1.2-dioctanoyl-sn-glycerol, 10 mM MgCl2, 20 mM HEPES (pH 7.4), 0-8 mM EDTA, 4 mM EGTA, 4% glycerol, 8 μg/ml aprotinin, 8 μg/ml leupeptin, and 2 mM benzamidine. 0.5 μCi [γ^32-P]ATP was added and ^32P-phosphoprotein formation was measured by adsorption onto phosphocellulose as described previously (25). This assay was used with slight adjustments for either Hermissenda nervous system homogenates or cultured mammalian neuron homogenates.
Histone phosphorylation (See “Methods”) in isolated circumesophageal nervous systems was then measured in the cytosol fraction. […] (FIG. 12, 13).

[15] = target: protein kinase C; details: (−)-enantiomer; cited from earlier work
[16] = tested on: sAPP secretion; details: control and AD fibroblasts; cited from earlier work
[17] = 2000 IU/day; cited from earlier work
[18] = A-ring bryologs, read-out: affinity for PKC

In the case of `CCCCCCCC(=O)O[C@H]1/C(=C/C(=O)OC)C[C@H]2C[C@H](CO)OC(=O)C[C@H](O)C[C@@H]3CCC[C@H](C[C@@H]4CCO[C@H](/C=C/C(C)(C)[C@]1(O)O2)O4)O3` [Analog 1], the “affinity for PKC, in words” value [1] is given as “highest affinity for PKC”, the Ki ([1]; read-out: PKC Affin) is given as 0.25 nM and the “potency relative to bryostatin-1” value [2] is given as “about 100 times”.
For `CCCCCCCC(=O)O[C@H]1/C(=C/C(=O)OC)C[C@H]2C[C@H](CO)OC(=O)C[C@H](O)CCOCC[C@@H]3CCO[C@H](/C=C/C(C)(C)[C@]1(O)O2)O3` [Analog 2], the “affinity for PKC, in words” value [1] is listed as “maintains high affinity for PKC” and the Ki ([1]; read-out: PKC Affin) is listed as 6.5 nM.
In the case of `CCCCCC1CC1CC1CC1CCCCCCCC(=O)O` (stereo not drawn) [DCP-LA, 2-[(2-pentylcyclopropyl)methyl]cyclopropaneoctanoic acid], the “concentration of maximal effect on PKCε” value [3] is listed as 100 nM.
In the case of `C=C(C)[C@]12C[C@@H](COC(=O)c3ccccc3)[C@@]34OC5(O[C@@H]1[C@@H]3C1O[C@]1(CO)[C@@H](O)[C@@]1(O)[C@H]4[C@@H](C(C)CCCCCC[C@@H]5O)C(C)[C@@H]1OC(=O)c1ccccc1)O2` (stereo partly drawn) [Gnidimacrin], the “concentration at which it acts as a PKC activator” value [4] is given as 0.3 nM, the “inhibition of Cdk2” value [5] is given as 100% and the “concentrations displaying potent antitumor activity” value [6] is given as 0.1 to 1 nM.
For `CC1=C[C@]23C(=O)[C@@H](C=C(COC(=O)c4ccccc4)[C@@H](O)[C@]2(O)[C@H]1OC(=O)c1ccccc1)[C@H]1[C@@H](C[C@H]3C)C1(C)C` [Ingenol 3,20-dibenzoate], the Ki [7] is given as 240 nM.
For `C/C=C(/C)C(=O)O[C@H]1C(C)=C[C@]23C(=O)[C@@H](C=C(CO)[C@@H](O)[C@]12O)[C@H]1[C@@H](C[C@H]3C)C1(C)C` [Ingenol-3-angelate], the antitumor activity [8] is given as “possesses antitumor activity”.
For `CC1=CC[C@H](C)C(C)(C)[C@@H]1/C=C/C(C)=C/CC[C@@]1(CO)[C@H](CCCO)/C(=C(/C)C=O)CC[C@]1(C)O` [Iripallidal], the “GI50 (concentration required to inhibit growth by 50%)” value [9] is given as “from micromolar to nanomolar range”.
In the case of `CC(=O)N[C@@H](CSC(=O)[C@]1([C@@H](O)C(C)C)NC(=O)[C@H](C)[C@@H]1O)C(=O)O` [Lactacysteine], the “acquisition or retention of behavioral training” value ([10]; lactacysteine 10 μM alone for 4 h, 2-paired TEs 24 hrs later) is reported as “no acquisition or retention of behavioral training” and the “memory after single bryostatin exposure followed by 2 TE” value ([10]; lactacysteine 10 μM together with bryostatin 0.25 ng/ml for 4 h) is reported as “long-term memory lasting many days”.
With `Cn1cc(C2=C(c3cn(CCCSC(=N)N)c4ccccc34)C(=O)NC2=O)c2ccccc21` [RO-31-8220] the “effect on bryostatin-induced ELAV transport and spine increase” value [11] was “suppressed”.
In the case of `CN(C)C[C@H]1CCn2c(c(C3=C(c4cn(C)c5ccccc45)C(=O)NC3=O)c3ccccc32)C1` [Ro-32], the “effect on bryostatin-induced increase of protein synthesis” value [12] is reported as “partially blocked”, the “effect on bryostatin-induced increase of protein synthesis” value ([12]; listed as Ro-32-0432) is reported as “increasing significantly less” and the “effect on long-term memory induction” value ([10]; Ro-32 immediately after bryostatin plus training) is reported as “did not prevent long-term memory induction”. For the same molecule, the “effect on 6 TE plus bryostatin” value ([10]; applied pre-training during dark adaptation) was “blocked” and the “effect on learning-specific calexcitin increases in the Type B cell” value ([13]; in vivo) was “prevented”.
With `COc1ccc(C[C@H]2NC[C@H](O)[C@H]2OC(C)=O)cc1` [anisomycin] the “effect on PKC activity, cytosolic and membrane fractions” value [14] was “markedly reduced”, the “effect on memory retention produced by 9 TE” value ([10]; 4 hour anisomycin treatment, no bryostatin) was “eliminated all memory retention” and the “effect on memory from single 4 hour bryostatin exposure with 2 TE” value ([10]; anisomycin 1.0 μg/ml) was “entirely eliminated”. The “effect on long-term retention after three-day bryostatin treatments” value ([10]; anisomycin 1 μg/ml for four hours post-training, 2-TEs) was “did not prevent long-term retention” and the “effect on calexcitin level” value ([13]; anisomycin immediately after 2-paired TEs, 3 days of 4-hr bryostatin) was “did not reduce”.
In the case of `CCCCCCCC(=O)OC1C(=CC(=O)OC)CC2CC(CO)OC(=O)CC(O)CCOC(C(C)(C)C)CC3CCOC(C=CC(C)(C)C1(O)O2)O3` (stereo not drawn) [bryolog 3], the Ki [1, 18] is listed as 6.5 nM.
For `CCCCCCCC(=O)OC1C(=CC(=O)OC)CC2CC(CO)OC(=O)CC(O)CCOC(c3ccccc3)CC3CCOC(C=CC(C)(C)C1(O)O2)O3` (stereo not drawn) [bryolog 4], the Ki [1, 18] is listed as 2.3 nM.
In the case of `CCCCCCCC(=O)OC1C(=CC(=O)OC)CC2CC(CO)OC(=O)CC(O)CCOC(CCCc3ccc(Br)cc3)CC3CCOC(C=CC(C)(C)C1(O)O2)O3` (stereo not drawn) [bryolog 5], the Ki [1, 18] is listed as 1.9 nM.
With `COc1ccc2c(c[n+](C)c3c4cc5c(cc4ccc23)OCO5)c1OC` [chelerythrine] the “effect on bryostatin-induced ELAV transport and spine increase” value [11] was “suppressed”.
In the case of `CCCCCCCCc1ccc2c3c(c[nH]c13)C[C@@H](CO)NC(=O)[C@H](C(C)C)N2C` [octylindolactam V, Octylindolactam V], the EC50 [15] is listed as 29 nM.
For `CN[C@@H]1C[C@H]2O[C@@](C)([C@@H]1OC)n1c3ccccc3c3c4c(c5c6ccccc6n2c5c31)C(=O)NC4` [staurosporine], the “effect on benzolactam-induced sAPP secretion” value [16] is listed as “eliminated the effects of benzolactam”.
In the case of vitamin E, the cognitive abilities [17] is given as “did not enhance cognitive abilities” and the mortality and morbidity [17] is given as “reduced mortality and morbidity”.
